The test has as its target T1, mouse TRPM3α2 (mTRPM3) ion channel (Mus musculus, UniProt J9SQF3).
T1 construct: expressed in transfected cells; host or cells: flip-in HEK293
Put plainly: TRPM3 ion channel driven Ca2+ uptake, Fluo-4 AM assay, PS-stimulated (mTRPM3). The test is classed as cell-based. To be noted: TRPM3 overexpressing flip-in HEK293 cells stimulated with Pregnenolone sulfate (PS) 50 μM, activity ranges A, B, C. The method, boiled down:
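Flp-In HEK293 cells overexpressing mTRPM3α2 were added, in Ca²⁺-free Krebs, to wells already holding compound and 50 μM pregnenolone sulfate in Ca²⁺-containing Krebs. Fluo-4 AM fluorescence (ex 485/em 535 nm) was read immediately. Percent inhibition was computed from RFU relative to PS/vehicle wells and a positive-control inhibitor.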

SMILES strings stand for the structures. A value given as a limit tells only on which side of the number the result lay.

T1 sequence (J9SQF3 1-1709 isoform J9SQF3-12): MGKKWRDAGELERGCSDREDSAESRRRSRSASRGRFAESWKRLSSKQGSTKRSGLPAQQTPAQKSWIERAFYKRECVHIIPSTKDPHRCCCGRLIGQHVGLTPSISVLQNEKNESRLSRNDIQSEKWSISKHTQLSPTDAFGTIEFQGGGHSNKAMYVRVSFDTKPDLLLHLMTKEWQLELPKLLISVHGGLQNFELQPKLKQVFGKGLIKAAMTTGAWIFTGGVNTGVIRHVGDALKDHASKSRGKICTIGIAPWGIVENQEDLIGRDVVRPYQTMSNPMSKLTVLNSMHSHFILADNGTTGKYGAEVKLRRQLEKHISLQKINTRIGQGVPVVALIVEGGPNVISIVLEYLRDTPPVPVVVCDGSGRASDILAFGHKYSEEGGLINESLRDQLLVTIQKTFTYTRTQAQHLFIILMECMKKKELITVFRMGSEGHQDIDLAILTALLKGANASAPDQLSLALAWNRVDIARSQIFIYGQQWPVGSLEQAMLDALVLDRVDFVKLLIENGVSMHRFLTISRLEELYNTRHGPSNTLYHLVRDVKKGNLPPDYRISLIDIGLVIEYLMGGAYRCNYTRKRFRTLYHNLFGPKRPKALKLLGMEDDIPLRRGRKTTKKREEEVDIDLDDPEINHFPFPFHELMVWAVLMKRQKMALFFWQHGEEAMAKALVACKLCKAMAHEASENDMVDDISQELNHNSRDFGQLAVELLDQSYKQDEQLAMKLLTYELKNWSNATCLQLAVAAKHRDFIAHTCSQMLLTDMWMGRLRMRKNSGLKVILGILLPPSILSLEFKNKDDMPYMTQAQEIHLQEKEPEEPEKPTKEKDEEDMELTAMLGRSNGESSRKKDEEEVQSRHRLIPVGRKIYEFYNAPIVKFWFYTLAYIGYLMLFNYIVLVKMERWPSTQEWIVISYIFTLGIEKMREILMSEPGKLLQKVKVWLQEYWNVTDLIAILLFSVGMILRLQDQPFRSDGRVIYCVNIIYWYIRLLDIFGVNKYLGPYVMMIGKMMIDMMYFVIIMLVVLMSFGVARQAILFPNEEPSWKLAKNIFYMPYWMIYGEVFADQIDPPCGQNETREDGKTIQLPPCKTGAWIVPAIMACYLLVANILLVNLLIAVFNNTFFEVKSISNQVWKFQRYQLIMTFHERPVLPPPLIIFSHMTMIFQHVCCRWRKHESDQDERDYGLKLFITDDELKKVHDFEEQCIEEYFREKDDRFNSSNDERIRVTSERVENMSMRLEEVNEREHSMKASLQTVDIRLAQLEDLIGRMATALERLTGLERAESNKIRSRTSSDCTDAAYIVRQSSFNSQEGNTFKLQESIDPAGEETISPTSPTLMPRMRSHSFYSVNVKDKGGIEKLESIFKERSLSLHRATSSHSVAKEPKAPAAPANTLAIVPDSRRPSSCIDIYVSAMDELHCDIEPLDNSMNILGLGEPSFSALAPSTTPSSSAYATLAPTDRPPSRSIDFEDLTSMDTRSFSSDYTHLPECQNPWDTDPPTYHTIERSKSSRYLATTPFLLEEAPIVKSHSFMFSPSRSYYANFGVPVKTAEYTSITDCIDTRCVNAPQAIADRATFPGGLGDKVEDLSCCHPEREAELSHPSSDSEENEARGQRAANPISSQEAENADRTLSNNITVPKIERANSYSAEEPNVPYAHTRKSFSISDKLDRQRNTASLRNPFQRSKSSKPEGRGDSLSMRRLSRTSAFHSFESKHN

`Cc1oc2ccc(OCc3ccccc3)cc2c1C(=O)NC1CCN(C(C)C)CC1` [Cpd 185, 5-(benzyloxy)-N-(1-isopropylpiperidin-4-yl)-2-methylbenzofuran-3-carboxamide] returned an IC50 of under 1000 nM.

Regarding `Cc1oc2ccc(OCc3ccccc3)cc2c1C(=O)NC1CCC(N(C)C)CC1` (stereo not shown) [Cpd 186, 5-(benzyloxy)-N-(4-(dimethylamino)cyclohexyl)-2-methylbenzofuran-3-carboxamide], the IC50 was under 1000 nM.

`Cc1oc2ccc(OCc3ccccc3)cc2c1C(=O)NCC1(N(C)C)CCCC1` [Cpd 187, 5-(benzyloxy)-N-((1-(dimethylamino)cyclopentyl)methyl)-2-methylbenzofuran-3-carboxamide] yielded an IC50 of under 1000 nM.

Compound `CNC(=O)[C@@H]1C[C@@H](NC(=O)c2c(C)oc3ccc(OCc4ccccc4)cc23)CN1` [Cpd 188, (2S,4R)-4-(5-(benzyloxy)-2-methylbenzofuran-3-carboxamido)-N-methylpyrrolidine-2-carboxamide] showed an IC50 of 1000 to 20000 nM.

Turning to `Cc1oc2ccc(OCc3ccccc3)cc2c1C(=O)NCCN1CCN(C)CC1` [Cpd 189, 5-(benzyloxy)-2-methyl-N-(2-(4-methylpiperazin-1-yl)ethyl)benzofuran-3-carboxamide], the IC50 was in the range of 1000 to 20000 nM.

With `Cc1oc2ccc(OCc3ccc(CN)cc3)cc2c1C(=O)NC1CCN(C)CC1` [Cpd 190, 5-((4-(aminomethyl)benzyl)oxy)-2-methyl-N-(1-methylpiperidin-4-yl)benzofuran-3-carboxamide], the IC50 is over 20000 nM.

Take `COC(=O)[C@@H]1C[C@H](NC(=O)c2c(C)oc3ccc(OCc4ccccc4)cc23)CN1` [Cpd 191, methyl (2S,4S)-4-(5-(benzyloxy)-2-methylbenzofuran-3-carboxamido)pyrrolidine-2-carboxylate]: the IC50 is under 1000 nM.

Consider `Cc1oc2ccc(OCc3ccccc3CO)cc2c1C(=O)NC1CCN(C)CC1` [Cpd 192, 5-((2-(hydroxymethyl)benzyl)oxy)-2-methyl-N-(1-methylpiperidin-4-yl)benzofuran-3-carboxamide], for which the IC50 is 1000 to 20000 nM.

For `Cc1oc2ccc(OCc3ccccc3)cc2c1C(=O)NC1(C(=O)O)CCOCC1` [Cpd 193, 4-(5-(benzyloxy)-2-methylbenzofuran-3-carboxamido)tetrahydro-2H-pyran-4-carboxylic acid], the IC50 is 1000 to 20000 nM.

On to `CCc1oc2ccc(OCc3cccc(F)c3)cc2c1C(=O)NC1CCN(C)CC1` [Cpd 194, 2-ethyl-5-((3-fluorobenzyl)oxy)-N-(1-methylpiperidin-4-yl)benzofuran-3-carboxamide], for which the IC50 was 1000 to 20000 nM.

The compound `Cc1oc2ccc(OCc3ccccc3)cc2c1C(=O)NS(=O)(=O)C(F)(F)F` [Cpd 195, 5-(benzyloxy)-2-methyl-N-((trifluoromethyl)sulfonyl)benzofuran-3-carboxamide] showed an IC50 of over 20000 nM.

`Cc1oc2ccc(OCc3ccccc3)cc2c1C(=O)NCc1nnc2ncccn12` [Cpd 196, N-([1,2,4]triazolo[4,3-a]pyrimidin-3-ylmethyl)-5-(benzyloxy)-2-methylbenzofuran-3-carboxamide]: the IC50 was in the range of 1000 to 20000 nM.

Turning to `Cc1oc2ccc(OCc3ccccc3F)cc2c1C(=O)NC1(CO)CCOCC1` [Cpd 197, 5-((2-fluorobenzyl)oxy)-N-(4-(hydroxymethyl)tetrahydro-2H-pyran-4-yl)-2-methylbenzofuran-3-carboxamide], the IC50 is under 1000 nM.

Regarding `Cc1oc2ccc(OCc3ccccc3)cc2c1C(=O)NC1CCS(=O)(=O)CC1` [Cpd 198, 5-(benzyloxy)-N-(1,1-dioxidotetrahydro-2H-thiopyran-4-yl)-2-methylbenzofuran-3-carboxamide], the IC50 is under 1000 nM.

Compound `COc1ccccc1COc1ccc2oc(C)c(C(=O)NS(=O)(=O)C3CC3)c2c1` [Cpd 199, N-(cyclopropylsulfonyl)-5-((2-methoxybenzyl)oxy)-2-methylbenzofuran-3-carboxamide] came in with an IC50 of under 1000 nM.

Compound `Cc1cc(C)c(CNC(=O)c2c(C)oc3ccc(OCc4ccccc4)cc23)c(=O)[nH]1` [Cpd 200, 5-(benzyloxy)-N-((4,6-dimethyl-2-oxo-1,2-dihydropyridin-3-yl)methyl)-2-methylbenzofuran-3-carboxamide] returned an IC50 of over 20000 nM.

The compound `Cc1oc2ccc(OCc3ccccc3F)cc2c1C(=O)NC1CCNCC1(F)F` (stereo not shown) [Cpd 201, N-(3,3-difluoropiperidin-4-yl)-5-((2-fluorobenzyl)oxy)-2-methylbenzofuran-3-carboxamide] yielded an IC50 of under 1000 nM.

Turning to `Cc1oc2ccc(OCc3ccc(C(F)(F)F)cc3)cc2c1C(=O)N[C@H]1CCNC1` [Cpd 202, (S)-2-methyl-N-(pyrrolidin-3-yl)-5-((4-(trifluoromethyl)benzyl)oxy)benzofuran-3-carboxamide], the IC50 was 1000 to 20000 nM.

Compound `Cc1oc2ccc(OCc3ccccc3C(F)(F)F)cc2c1C(=O)N[C@H]1CCNC1` [Cpd 203, (S)-2-methyl-N-(pyrrolidin-3-yl)-5-((2-(trifluoromethyl)benzyl)oxy)benzofuran-3-carboxamide] showed an IC50 of under 1000 nM.

`Cc1oc2ccc(OCc3cccc(C(F)(F)F)c3)cc2c1C(=O)N[C@H]1CCNC1` [Cpd 204, (S)-2-methyl-N-(pyrrolidin-3-yl)-5-((3-(trifluoromethyl)benzyl)oxy)benzofuran-3-carboxamide] returned an IC50 of under 1000 nM.

For the compound `Cc1oc2ccc(OCc3ccccc3)cc2c1C(=O)N[C@H]1C[C@H]2CN(C)CCN2C1` [Cpd 205, 5-(benzyloxy)-2-methyl-N-((7S,8aS)-2-methyloctahydropyrrolo[1,2-a]pyrazin-7-yl)benzofuran-3-carboxamide], the IC50 is 1000 to 20000 nM.

As to `Cc1oc2ccc(OCc3ccccc3)cc2c1C(=O)N[C@H]1CCCN(C2COC2)C1` [Cpd 206, (S)-5-(benzyloxy)-2-methyl-N-(1-(oxetan-3-yl)piperidin-3-yl)benzofuran-3-carboxamide], the IC50 was in the range of 1000 to 20000 nM.

In turn, `Cc1oc2ccc(OCc3ccccc3)cc2c1C(=O)N[C@@H]1CCCN(C2COC2)C1` [Cpd 207, (R)-5-(benzyloxy)-2-methyl-N-(1-(oxetan-3-yl)piperidin-3-yl)benzofuran-3-carboxamide] showed an IC50 of under 1000 nM.

As to `Cc1oc2ccc(OCc3ccccc3)cc2c1C(=O)NC1CCN(C2COC2)CC1` [Cpd 208, 5-(benzyloxy)-2-methyl-N-(1-(oxetan-3-yl)piperidin-4-yl)benzofuran-3-carboxamide], the IC50 lay within 1000 to 20000 nM.

`Cc1oc2ccc(OCc3ccccc3)cc2c1C(=O)NC1CC(C)(C)NC(C)(C)C1` [Cpd 209, 5-(benzyloxy)-2-methyl-N-(2,2,6,6-tetramethylpiperidin-4-yl)benzofuran-3-carboxamide] gave an IC50 of 1000 to 20000 nM.

`Cc1oc2ccc(OCc3ccccc3)cc2c1C(=O)N[C@H]1CC[C@H](C(C)(C)O)CC1` [Cpd 210, 5-(benzyloxy)-N-(trans-4-(2-hydroxypropan-2-yl)cyclohexyl)-2-methylbenzofuran-3-carboxamide]: the IC50 lay in the range of 1000 to 20000 nM.

With `Cc1oc2ccc(OCc3cccc(F)c3F)cc2c1C(=O)NC1CNCC1(F)F` (stereo not shown) [Cpd 211, 5-((2,3-difluorobenzyl)oxy)-N-(4,4-difluoropyrrolidin-3-yl)-2-methylbenzofuran-3-carboxamide], the IC50 is under 1000 nM.

Consider `COC(=O)C1(NC(=O)c2c(C)oc3ccc(OCc4ccccc4)cc23)CCOCC1` [Cpd 212, methyl 4-(5-(benzyloxy)-2-methylbenzofuran-3-carboxamido)tetrahydro-2H-pyran-4-carboxylate], for which the IC50 was under 1000 nM.

For the compound `Cc1oc2ccc(OCc3ccccc3)cc2c1C(=O)N1CCN(c2ccccn2)CC1` [Cpd 214, (5-(benzyloxy)-2-methylbenzofuran-3-yl)(4-(pyridin-2-yl)piperazin-1-yl)methanone], the IC50 fell in the range of 1000 to 20000 nM.

Compound `Cc1oc2ccc(OCc3ccccc3)cc2c1C(=O)N[C@H]1CCN(S(C)(=O)=O)C1` [Cpd 215, (S)-5-(benzyloxy)-2-methyl-N-(1-(methylsulfonyl)pyrrolidin-3-yl)benzofuran-3-carboxamide] showed an IC50 of under 1000 nM.

On to `Cc1oc2ccc(OCc3ccccc3)cc2c1C(=O)NCC(c1ccccc1)N(C)C` (stereo not shown) [Cpd 216, 5-(benzyloxy)-N-(2-(dimethylamino)-2-phenylethyl)-2-methylbenzofuran-3-carboxamide], for which the IC50 was 1000 to 20000 nM.

Compound `Cc1oc2ccc(OCc3cccc(F)c3F)cc2c1C(=O)NC1(CO)CCOCC1` [Cpd 217, 5-((2,3-difluorobenzyl)oxy)-N-(4-(hydroxymethyl)tetrahydro-2H-pyran-4-yl)-2-methylbenzo-furan-3-carboxamide] came in with an IC50 of under 1000 nM.

`Cc1oc2ccc(OCc3c(F)cccc3F)cc2c1C(=O)NC1(CO)CCOCC1` [Cpd 218, 5-((2,6-difluorobenzyl)oxy)-N-(4-(hydroxymethyl)tetrahydro-2H-pyran-4-yl)-2-methylbenzo-furan-3-carboxamide] registered an IC50 of under 1000 nM.

As to `Cc1oc2ccc(OCc3ccccc3C(F)(F)F)cc2c1C(=O)NC1CCNC1=O` (stereo not shown) [Cpd 219, 2-methyl-N-(2-oxopyrrolidin-3-yl)-5-((2-(trifluoromethyl)benzyl)oxy)benzofuran-3-carboxamide], the half-maximal inhibitory concentration (IC50) is under 1000 nM.

Take `CN1CCC(NC(=O)c2c(C3CCCC3)oc3ccc(OCc4ccccc4)cc23)CC1` [Cpd 221, 5-(benzyloxy)-2-cyclopentyl-N-(1-methylpiperidin-4-yl)benzofuran-3-carboxamide]: the IC50 is over 20000 nM.

Turning to `Cc1oc2ccc(OCc3ccccc3)cc2c1C(=O)N[C@H]1C[C@H]2C(=O)NCC(=O)N2C1` [Cpd 222, 5-(benzyloxy)-N-((7S,8aS)-1,4-dioxooctahydropyrrolo[1,2-a]pyrazin-7-yl)-2-methylbenzofuran-3-carboxamide], the IC50 lay within 1000 to 20000 nM.

With `Cc1oc2ccc(OCc3cccc(OC(F)(F)F)c3)cc2c1C(=O)N[C@H]1CCNC1` [Cpd 223, (S)-2-methyl-N-(pyrrolidin-3-yl)-5-((3-(trifluoromethoxy)benzyl)oxy)benzofuran-3-carboxamide], the IC50 was in the range of 1000 to 20000 nM.

For orientation: IC50 means the concentration that inhibits the measured activity by half.
